{"source": "patent US9232796B2", "about": "“Herbicidal compositions comprising 4-amino-3-chloro-5-fluoro-6-(4-chloro-2-fluoro-3-methoxyphenyl) pyridine-2-carboxylic acid or a derivative thereof and acetyl-CoA carboxylase (ACCase) inhibitors” (DOW AGROSCIENCES LLC, priority 2012, dated 2016)", "key": {"ECHCG": {"system": "ECHCG", "assay": "Example V (second) postemergence foliar-applied ternary mixtures, greenhouse, direct seeded rice weeds", "type": "in vivo, Echinochloa crus-galli (L.) Beauv.", "from_the_text": "(§1) Seeds or nutlets of the desired test plant species were planted in a soil matrix prepared by mixing a sandy loam or loam soil (e.g., 32 percent silt, 23 percent clay, and 45 percent sand, with a pH of about 6.5 and an organic matter content of about 1.9 percent) and calcareous grit in an 80 to 20 ratio. The soil matrix was contained in plastic pots with a volume of 1 quart and a surface area of 83.6 square centimeters (cm^2). When required to ensure good germination and healthy plants, a fungicide treatment and/or other chemical or physical treatment was applied. The plants were grown for 8-22 days in a greenhouse with an approximate 14 hr. photoperiod which was maintained at about 29° C. during the day and 26° C. during the night. Nutrients (Peters Excel® 15-5-15 5-Ca 2-Mg and iron chelate) were applied in the irrigation solution as needed and water was added on a regular basis. Supplemental lighting was provided with overhead metal halide 1000-Watt lamps as necessary. The plants were employed for testing when they reached the first through fourth true leaf stage.\n(§2) Treatments consisted of the benzyl ester of 4-amino-3-chloro-5-fluoro-6-(4-chloro-2-fluoro-3-methoxy-phenyl)pyridine-2-carboxylic acid (Compound A), formulated as an SC (suspension concentrate), an ACCase inhibitor, and a third herbicidal component, each applied alone and in ternary combination. Forms of compound A were applied on an acid equivalent basis.\nThe ACCase inhibitor component was applied on an active ingredient basis and included cyhalofop-R-butyl formulated as Clincher® SF, fenoxaprop-p-ethyl formulated as RiceStar® HT, and profoxydim formulated as Aura® 20EC. Other herbicidal components were applied on an active ingredient or acid equivalent basis depending on the compound and included penoxsulam formulated as Grasp® SC, bentazon sodium formulated as Basagran®, triclopyr […] (TEA) salt formulated as Grandstand® R, bispyribac sodium formulated as Regiment® 80WP, imazamox ammonium formulated as Beyond®, benzobicyclon, quinclorac formulated as Facet® 75DF, glyphosate dimethylammonium (DMA) salt formulated as Durango® DMA, glufosinate ammonium formulated as Ignite® 280, fentrazamide formulated as an emulsifiable concentrate (EC), propyrisulfuron formulated as Zeta One®, and indanofan (technical grade material).\n(§3) Treatment requirements were calculated based upon the rates being tested, the concentration of active ingredient or acid equivalent in the formulation, and a 12 mL application volume at a rate of 187 L/ha.\n(§4) For treatments comprised of formulated compounds, measured amounts of compounds were placed individually in 25 mL glass vials and diluted in a volume of 1.25% (v/v) Agri-Dex® crop oil concentrate to obtain 12× stock solutions. […] Application solutions were prepared by adding an appropriate amount of each stock solution (e.g., 1 mL) and diluted to the appropriate final concentrations with the addition of 9 mL of an aqueous mixture of 1.25% (v/v) crop oil concentrate so that the final spray solutions contained 1.25% (v/v) crop oil concentrate.\n(§5) As required, additional water and/or 97:3 v/v acetone/DMSO was added to individual application solutions so that the final acetone and DMSO concentrations of the application solutions being compared were 8.1% and 0.25%, respectively.\n(§6) All stock solutions and applications solutions were visually inspected for compound compatibility prior to application. Spray solutions were applied to the plant material with an overhead Mandel track sprayer equipped with a 8002E nozzles calibrated to deliver 187 L/ha over an application area of 0.503 m^2 at a spray height of 18 inches (46 cm) above average plant canopy height. Control plants were sprayed in the same manner with the solvent blank.\nThe treated plants and control plants were placed in a greenhouse as described above and watered by sub-irrigation to prevent wash-off of the test compounds. […]"}, "ECHOR [1]": {"system": "ECHOR", "assay": "Example V (second) postemergence foliar-applied ternary mixtures, greenhouse, direct seeded rice weeds", "type": "in vivo, Echinochloa oryzoides (Ard.) Fritsch", "experimental": "as §1, with “When required to ensure good germination and healthy plants, a fungicide treatment and/or other chemical or physical treatment was applied.” left out\nas §2, §4, §5, §6\n(§7) The treated plants and control plants were placed in a greenhouse as described above and watered by sub-irrigation to prevent wash-off of the test compounds. After approximately 3 weeks, the condition of the test plants as compared with that of the untreated plants was determined visually and scored on a scale of 0 to 100 percent where 0 corresponds to no injury or growth inhibition and 100 corresponds to complete kill.\n(§8) Colby's equation was used to determine the herbicidal effects expected from the mixtures (Colby, S. R. 1967. Calculation of the synergistic and antagonistic response of herbicide combinations. Weeds 15:20-22.).\nThe following equation was used to calculate the expected activity of mixtures containing three active ingredients, A, B, and C: Expected=A+B+C−((A×B+A×C+B×C)/100)+(A×B×C/10000)"}, "ECHOR [2]": {"system": "ECHOR", "assay": "Example II in-water applied, greenhouse, transplanted paddy rice weeds", "type": "in vivo, Echinochloa oryzoides (Ard.) Fritsch", "conditions": "in-water", "experimental": "(§9) Weed seeds or nutlets of the desired test plant species were planted in puddled soil (mud) prepared by mixing a shredded, non-sterilized mineral soil (50.5 percent silt, 25.5 percent clay, and 24 percent sand, with a pH of about 7.6 and an organic matter content of about 2.9 percent) and water at a 1:1 volumetric ratio. The prepared mud was dispensed in 365 mL aliquots into 16-ounce (oz.) non-perforated plastic pots with a surface area of 86.59 square centimeters (cm^2) leaving a headspace of 3 centimeters (cm) in each pot. Mud was allowed to dry overnight prior to planting or transplanting. Rice seeds were planted in Sun Gro MetroMix® 306 planting mixture, which typically has a pH of 6.0 to 6.8 and an organic matter content of about 30 percent, in plastic plug trays. Seedlings at the second or third leaf stage of growth were transplanted into 860 mL of mud contained in 32-oz. non-perforated plastic pots with a surface area of 86.59 cm^2 4 days prior to herbicide application. The paddy was created by filling the headspace of the pots with 2.5 to 3 cm of water. […] The plants were grown for 4-22 days in a greenhouse with an approximate 14 hr. photoperiod which was maintained at about 29° C. during the day and 26° C. during the night. Nutrients were added as Osmocote® (19:6:12, N:P:K+minor nutrients) at 2 g per 16-oz. pot and 4 g per 32-oz. pot. Water was added on a regular basis to maintain the paddy flood, and supplemental lighting was provided with overhead metal halide 1000-Watt lamps as necessary. The plants were employed for testing when they reached the first through fourth true leaf stage.\n(§10) Treatments consisted of the acid or esters of 4-amino-3-chloro-5-fluoro-6-(4-chloro-2-fluoro-3-methoxy-phenyl)pyridine-2-carboxylic acid (compound A) each formulated as an SC (suspension concentrate) and various herbicidal components alone and in combination.\n(§11) For formulated compounds, a measured amount was placed in an individual 100 or 200 mL glass vial and was dissolved in a volume of 1.25% (v/v) Agri-Dex® crop oil concentrate to obtain application solutions.\n(§12) Applications were made by injecting with a pipetter appropriate amounts of the application solutions, individually and sequentially, into the aqueous layer of the paddy. Control plants were treated in the same manner with the solvent blank. Applications were made so that all treated plant material received the same concentrations of acetone and crop oil concentrate.\nas §7, with “water was added as needed” for “watered by sub-irrigation”, “maintain a paddy flood.” for “prevent wash-off of the test compounds.”, “weeks” for “weeks,”\nas §8\n(§13) The following equation was used to calculate the expected activity of mixtures containing two active ingredients, A and B: Expected=A+B−(A×B/100)"}, "CYPRO": {"system": "CYPRO", "assay": "Example II in-water applied, greenhouse, transplanted paddy rice weeds", "type": "in vivo, Cyperus rotundus L.", "experimental": "as §9, §10, §11, §12\nas §7, with “water was added as needed” for “watered by sub-irrigation”, “maintain a paddy flood.” for “prevent wash-off of the test compounds.”, “weeks” for “weeks,”\nas §8, §13"}, "IPOHE": {"system": "IPOHE", "assay": "Example I postemergence foliar-applied, greenhouse, direct seeded rice weeds", "type": "in vivo, Ipomoea hederacea Jacq.", "from_the_text": "Seeds or nutlets of the desired test plant species were planted in a soil matrix prepared by mixing a loam or sandy loam soil (e.g., 28.6 percent silt, 18.8 percent clay, and 52.6 percent sand, with a pH of about 5.8 and an organic matter content of about 1.8 percent) and calcareous grit in an 80 to 20 ratio. The soil matrix was contained in plastic pots with a volume of 1 quart and a surface area of 83.6 square centimeters (cm^2). When required to ensure good germination and healthy plants, a fungicide treatment and/or other chemical or physical treatment was applied. The plants were grown for 8-22 days in a greenhouse with an approximate 14 hr. photoperiod which was maintained at about 29° C. during the day and 26° C. during the night. Nutrients (Peters Excel® 15-5-15 5-Ca 2-Mg and iron chelate) were applied in the irrigation solution as needed and water was added on a regular basis. Supplemental lighting was provided with overhead metal halide 1000-Watt lamps as necessary. The plants were employed for testing when they reached the first through fourth true leaf stage.\nTreatments consisted of the acid or esters of 4-amino-3-chloro-5-fluoro-6-(4-chloro-2-fluoro-3-methoxy-phenyl)pyridine-2-carboxylic acid (Compound A), each formulated as an SC (suspension concentrate), and various herbicidal components alone and in combination.\nOther herbicidal components were applied on an acid equivalent (ae) or active ingredient (ai) basis and included acetyl coA carboxylase (ACCase)-inhibiting herbicides (cyclohexanedione and aryloxyphenoxypropionate chemical classes) cyhalofop-butyl formulated as Clincher® SF (285 gr ai/L EC), diclofop-methyl formulated as Hoelon® 3EC, fenoxaprop-p-ethyl+isoxadifen-ethyl formulated as RiceStar® HT (0.58 lb./gal EC), fenoxaprop-p-ethyl+mefenpyr diethyl formulated as Puma® IEC, metamifop formulated as Metamifop EC, haloxyfop-methyl formulated as Gallant Super®, fluazifop-p-butyl formulated as Fusilade® DX, quizalofop-p-ethyl formulated as Assure® II, profoxydim formulated as Aura® 20EC, clethodim applied as Intensity®, sethoxydim formulated as Poast®, and tralkoxydim formulated as Achieve®.\nas §3\nas §4, with “crop oil concentrated to obtain” for “crop oil concentrate to obtain”, “addition of 10 mL of” for “addition of 9 mL of”, “solutions contained 1.25+/−0.05% (v/v) crop” for “solutions contained 1.25% (v/v) crop”\nAll stock solutions and applications solutions were visually inspected for compound compatibility prior to application. Spray solutions were applied to the plant material with an overhead Mandel track sprayer equipped with a 8002E nozzles calibrated to deliver 187 L/ha over an application area of 0.503 m^2 at a spray height of 18 to 20 inches (46 to 50 cm) above average plant canopy height. Control plants were sprayed in the same manner with the solvent blank.\nas §7, with “kill. […]” for “kill.”"}}}
{"compound": "CCN(C(=O)n1nnn(-c2ccccc2Cl)c1=O)C1CCCCC1", "note": "[Fentrazamide]", "values": [{"measurement": "Visual Weed Control (%) - 22 DAA ECHCG Obs", "setting": "ECHCG; 33.75 gai/ha", "result": 0, "unit": "%"}, {"measurement": "Visual Weed Control (%) - 22 DAA ECHCG Obs", "setting": "ECHCG; 67.5 gai/ha", "result": 0, "unit": "%"}, {"measurement": "Visual Weed Control (%)- 22 DAA ECHOR Obs", "setting": "ECHOR [1]; 33.75 gai/ha", "result": 3, "unit": "%"}, {"measurement": "Visual Weed Control (%)- 22 DAA ECHOR Obs", "setting": "ECHOR [1]; 67.5 gai/ha", "result": 0, "unit": "%"}]}
{"compound": "CCCCOC(=O)[C@@H](C)Oc1ccc(Oc2ccc(C(F)(F)F)cn2)cc1", "note": "[Fluazifop-p-butyl, butyl(2R)-2-[4-[[5-(trifluoromethyl)-2-pyridinyl]oxy]phenoxy]propanoate, reference compound]", "values": [{"measurement": "Visual Weed Control (%) - 21 DAA ECHOR Obs", "setting": "ECHOR [2]; 45 gai/ha", "result": 0, "unit": "%"}, {"measurement": "Visual Weed Control (%) - 21 DAA ECHOR Obs", "setting": "ECHOR [2]; Fluazifop-P-butyl 90 gae/ha", "result": 25, "unit": "%"}, {"measurement": "Visual Weed Control (%) - 21 DAA CYPRO Obs", "setting": "CYPRO; Fluazifop-P-butyl 90 gae/ha", "result": 0, "unit": "%"}, {"measurement": "Visual Weed Control (%) - 21 DAA CYPRO Obs", "setting": "CYPRO; Fluazifop-P-butyl 180 gae/ha", "result": 0, "unit": "%"}, {"measurement": "Visual Weed Control (%) - 19 DAA IPOHE Obs", "setting": "IPOHE; 45 gae/ha", "result": 0, "unit": "%"}, {"measurement": "Visual Weed Control (%) - 19 DAA IPOHE Obs", "setting": "IPOHE; 90 gae/ha", "result": 0, "unit": "%"}, {"measurement": "Visual Weed Control (%) - 19 DAA IPOHE Obs", "setting": "IPOHE; 180 gae/ha", "result": 0, "unit": "%"}]}
{"compound": "CCCc1ccc2nc(Cl)c(S(=O)(=O)NC(=O)Nc3nc(OC)cc(OC)n3)n2n1", "note": "[Propyrisulfuron]", "values": [{"measurement": "Visual Weed Control (%) - 22 DAA ECHOR Obs", "setting": "ECHOR [1]; 22.5 gai/ha", "result": 55, "unit": "%"}]}
